Data taken from patent US20250034200A1, “Prodrugs of Neurosteroid Analogs and Uses Thereof” (priority 2021, published 2025).
Structures can show the parent of a compound that is named as a salt. Where two headings read alike, the source gives them in different places.

Columns and labels:
[1] = Aqueous stability assay (HPLC, pseudo first-order half-life); type: physicochemical; details: DPBS pH 7.0-7.3, 1 mg/mL, room temperature; for half-life at 1 mg/mL / half-life: buffer, read-out: PBS t1/2 (converted)
Method: Aqueous stability experiments were performed on an Agilent 1100 HPLC equipped with an Agilent 1200 autosampler. HPLC grade solvents were exclusively used during analysis, with acetonitrile being purchased from Sigma Aldrich, and water and formic acid provided by Fisher Scientific. […]
[…] All mixtures were then sonicated for 5 min or stirred until complete dissolution was achieved. Any precipitate observed in sample solutions was filtered with a PTFE syringe filter prior to analysis. Immediately after sample preparation, injection by the HPLC autosampler was performed, which was recorded as the initial time point (t=0 min). Samples were then kept in the autosampler at room temperature and injected at designated intervals without additional filtration or sample modification. Next, the area of the parent peak in each chromatogram was determined by automated integration in the Agilent ChemStation software. Pseudo first-order half-lives were then ascertained by calculating the percent of the parent compound remaining after each time point. Plots of time (x-axis) vs. the natural logarithm of percent parent remaining (y-axis) were subsequently constructed to determine the slope. Finally, the aqueous stability was evaluated using the following equation:
The HPLC conditions were as follows: injection volume, 1 μL; column temperature: 40° C.; detector: 254 nm; stationary phase: Zorbax Eclipse XDB-C18 (4.6×150 mm, 5 μm); flow rate: 1 mL/min; mobile phase: 80-95% acetonitrile in H2O (0.1% formic acid).

[2] = Plasma stability assay (LC-MS/MS); type: in vitro ADME; details: human plasma, 37° C., 3 μM
Method: Procaine and procainamide were purchased from Sigma Aldrich. HPLC-grade acetonitrile, water, methanol, and formic acid were purchased from Fisher Scientific. Human plasma (Cat. No. […]2N) was obtained from BIOIVT, and PBS (1×Dulbecco's, pH 7.4) from Thermo Fisher Scientific.
Test compounds were dissolved in DMSO to make a stock solution of 10 mM and then diluted to 500 μM in buffer or 70% methanol. Human plasma was thawed at ambient temperature and aliquoted (994.0 μL) to a 1.5 mL Eppendorf tube in duplicates (vials A and B) for each compound. The plasma was incubated at 37° C. for 10 min in an incubator shaker at 150 RPM; the reaction was initiated by addition of the test compound (6.0 μL), followed by vortex mixing. The total reaction volume was 1000 μL, the final organic solvent concentrations were […] (when 70% methanol was used for dilution) and 0.03% DMSO, and the final concentration of the test compound was 3 μM. The spiked plasma samples were incubated at 37° C. for 4 h. The reactions were terminated at time point 0, 15, 30, 60, 120, 180, and 240 min by taking a 100 μL aliquot from the test incubation mixture and immediately quenching it by adding it into ice-cold acetonitrile or methanol (150 μL) containing 2 μM internal standard (ISTD), followed by vortex mixing. The ISTD was d5-7-ethoxy coumarin. The samples were then centrifuged at 15000 RPM for 25 min at 4° C., and the supernatant was transferred to an LC-MS vial for analysis by LC-MS/MS. Each time point was tested in duplicates followed by in-between blank washes to avoid carryover and to equilibrate the column.
Procaine (poor plasma stability) and procainamide (good plasma stability) were used as controls at the same concentration as that of the test compound. These controls were run in parallel to test the assay's competency. Matrix blank was prepared by adding acetonitrile or methanol containing ISTD to plasma samples without any of the test or control compounds. Also, an additional control sample was made to simply monitor compound degradation in PBS buffer.
Below is a summary of samples prepared for a given test compound in a typical plasma stability assay: • Test compound (TC): 994 μL human plasma+6.0 μL TC (Vial A) 994 μL human plasma+6.0 μL TC (Vial B) • Control: 596 μL human plasma+3.6 μL (procaine+procainamide) • Blank matrix: 500 μL PBS buffer+100 μL human plasma • Additional control: 142 μL PBS buffer+0.9 μL TC • Quenching mixture: 150 μL acetonitrile or methanol with ISTD (2 μM) • Final volume: 250 μL (100 μL from the incubation mixture+150 μL quenching mixture; final ISTD conc.: 1.2 μM)
LC-MS/MS analysis was performed using Agilent 1260 Infinity II HPLC, coupled with an Agilent G6460 triple quadrupole mass spectrometer (Agilent Technologies, USA). The data were acquired and processed using the Agilent 6460 Quantitative Analysis data processing software.
Reverse-phase HPLC separation for each compound was achieved on an Agilent InfinityLab Poroshell 120 C18 column (2.1×50 mm, 2.7 μm) with a mobile phase composed of methanol/water with 0.1% formic acid or acetonitrile/water with 0.1% formic acid at a flow rate of 0.5 mL/min. Each method was developed in the presence of the ISTD. The column temperature was maintained at 40° C. The detection was operated using the Agilent Jet-Stream electrospray positive ionization under the multiple reaction monitoring mode. The mass spec conditions were as follows: dwell time 100 ms; gas flow 10 L/min; nebulizer pressure 45 psi; delta EMV 200 V.
Plots of time (x-axis) vs. the natural logarithm of percent parent remaining (y-axis) were subsequently constructed to determine the slope. Finally, the plasma stability was evaluated using the following equation: […]

[3] = read-out: Plasma t1/2 (converted)

**Q.** With C/C(=N\OC(=O)NCCCN)[C@H]1CC[C@H]2[C@@H]3CCC4=CC(=O)CC[C@]4(C)[C@H]3CC[C@]12C [32e, (8S,9S,10R,13S,14S,17S)-17-((E)-1-((((3-aminopropyl)carbamoyl)oxy)imino)ethyl)-10,13-dimethyl-1,2,6,7,8,9,10,11,12,13,14,15,16,17-tetradecahydro-3H-cyclopenta[a]phenanthren-3-one hydrochloride] as the molecule, how does the “PBS t1/2” value ([1]; d (days)) read?
**A.** 120 days

**Q.** And the half-life at 1 mg/mL [1]?
**A.** 2880 h

**Q.** With C/C(=N\OC(=O)OCCN)[C@H]1CC[C@H]2[C@@H]3CCC4=CC(=O)CC[C@]4(C)[C@H]3CC[C@]12C [32f, (8S,9S,10R,13S,14S,17S)-17-((E)-1-((((2-aminoethoxy)carbonyl)oxy)imino)ethyl)-10,13-dimethyl-1,2,6,7,8,9,10,11,12,13,14,15,16,17-tetradecahydro-3H-cyclopenta[a]phenanthren-3-one hydrochloride] as the molecule, how does the half-life at 1 mg/mL [1] read?
**A.** 0.11 ± 0.01 h

**Q.** For C/C(=N\OC(=O)N1CCC[C@H]1CN)[C@H]1CCC2[C@@H]3CCC4=CC(=O)CC[C@]4(C)[C@H]3CC[C@@]21C (stereo partly drawn) [32h, ((2S)-1-(((((E)-1-((8S,9S,10R,13S,17S)-10,13-dimethyl-3-oxo-2,3,6,7,8,9,10,11,12,13,14,15,16,17-tetradecahydro-1H-cyclopenta[a]phenanthren-17-yl)ethylidene)amino)oxy)carbonyl)pyrrolidin-2-yl) methanaminium chloride], which half-life at 1 mg/mL ([1]; d (days)) is on record?
**A.** > 720 h

**Q.** And the half-life at 3 µM [2, 3]?
**A.** > 4 h

**Q.** Which results are given for CNC[C@@H]1CCCN1C(=O)O/N=C(\C)[C@H]1CCC2[C@@H]3CCC4=CC(=O)CC[C@]4(C)[C@H]3CC[C@@]21C.Cl (stereo partly drawn) [32k, 1-((2S)-1-(((((E)-1-((8S,9S,10R,13S,17S)-10,13-dimethyl-3-oxo-2,3,6,7,8,9,10,11,12,13,14,15,16,17-tetradecahydro-1H-cyclopenta[a]phenanthren-17-yl)ethylidene)amino)oxy)carbonyl)pyrrolidin-2-yl)-N-methylmethanaminium chloride]?
**A.** half-life ([1]; d (days)): > 720 h; half-life [2, 3]: > 4 h

**Q.** Which half-life ([1]; d (days)) does the source give for C/C(=N\OC(=O)N(C)C[C@@H]1CCCCN1)[C@H]1CCC2[C@@H]3CCC4=CC(=O)CC[C@]4(C)[C@H]3CC[C@@]21C.Cl (stereo partly drawn) [32l, (8S,9S,10R,13S,17S)-10,13-dimethyl-17-((E)-1-(((methyl(((S)-piperidin-2-yl)methyl)carbamoyl)oxy)imino)ethyl)-1,2,6,7,8,9,10,11,12,13,14,15,16,17-tetradecahydro-3H-cyclopenta[a]phenanthren-3-one hydrochloride] here?
**A.** 475 h

**Q.** And the half-life [2, 3]?
**A.** 6.8 h

**Q.** For C/C(=N\OC(=O)N(C)C[C@@H]1C[C@@H](O)CN1)[C@H]1CC[C@H]2[C@@H]3CCC4=CC(=O)CC[C@]4(C)[C@H]3CC[C@]12C.O=C(O)C(F)(F)F [32m, (8S,9S,10R,13S,14S,17S)-17-((E)-1-((((((2S,4R)-4-hydroxypyrrolidin-2-yl)methyl)(methyl)carbamoyl)oxy)imino)ethyl)-10,13-dimethyl-1,2,6,7,8,9,10,11,12,13,14,15,16,17-tetradecahydro-3H-cyclopenta[a]phenanthren-3-one 2,2,2-trifluoroacetate], which half-life [1] is on record?
**A.** 1.3 h

**Q.** Which half-life [1] does the source give for C/C(=N\OC(=O)OC[C@@H]1CCCN1)[C@H]1CCC2[C@@H]3CCC4=CC(=O)CC[C@]4(C)[C@H]3CC[C@@]21C.Cl (stereo partly drawn) [32n, (8S,9S,10R,13S,17S)-10,13-dimethyl-17-((E)-1-((((((S)-pyrrolidin-2-yl)methoxy)carbonyl)oxy)imino)ethyl)-1,2,6,7,8,9,10,11,12,13,14,15,16,17-tetradecahydro-3H-cyclopenta[a]phenanthren-3-one hydrochloride] here?
**A.** 0.09 ± 0.01 h

**Q.** Which half-life at 1 mg/mL [1] does the source give for C/C(=N\OC(=O)N(C)CCNCCF)[C@H]1CC[C@H]2[C@@H]3CCC4=CC(=O)CC[C@]4(C)[C@H]3CC[C@]12C.O=C(O)C(F)(F)F [32o, (E)-2-((8S,9S,10R,13S,14S,17S)-10,13-dimethyl-3-oxo-2,3,6,7,8,9,10,11,12,13,14,15,16,17-tetradecahydro-1H-cyclopenta[a]phenanthren-17-yl)-11-fluoro-6-methyl-4-oxa-3,6,9-triazaundec-2-en-5-one 2,2,2-trifluoroacetate] here?
**A.** 36.1 ± 2.4 h

**Q.** And the “Plasma t1/2” value [2]?
**A.** 2.2 h

**Q.** For CNCCN(CC(=O)O)C(=O)O/N=C(\C)[C@H]1CC[C@H]2[C@@H]3CCC4=CC(=O)CC[C@]4(C)[C@H]3CC[C@]12C.O=C(O)C(F)(F)F [53g, N-(((((E)-1-((8S,9S,10R,13S,14S,17S)-10,13-dimethyl-3-oxo-2,3,6,7,8,9,10,11,12,13,14,15,16,17-tetradecahydro-1H-cyclopenta[a]phenanthren-17-yl)ethylidene)amino)oxy)carbonyl)-N-(2-(methylamino)ethyl)glycine 2,2,2-trifluoroacetate], which half-life [1] is on record?
**A.** > 24 h

**Q.** For CNCCN(CCC(=O)O)C(=O)O/N=C(\C)[C@H]1CC[C@H]2[C@@H]3CCC4=CC(=O)CC[C@]4(C)[C@H]3CC[C@]12C.O=C(O)C(F)(F)F [53h, 3-((((((E)-1-((8S,9S,10R,13S,14S,17S)-10,13-dimethyl-3-oxo-2,3,6,7,8,9,10,11,12,13,14,15,16,17-tetradecahydro-1H-cyclopenta[a]phenanthren-17-yl)ethylidene)amino)oxy)carbonyl)(2-(methylamino)ethyl)amino) propanoic acid 2,2,2-trifluoroacetate], which half-life [1] is on record?
**A.** > 24 h

**Q.** Which half-life [1] does the source give for C/C(=N\OC(=O)N(CCNC(C)(C)C)C(C)(C)C)[C@H]1CC[C@H]2[C@@H]3CCC4=CC(=O)CC[C@]4(C)[C@H]3CC[C@]12C.Cl [54c, (E)-6-(tert-butyl)-2-((8S,9S,10R,13S,14S,17S)-10,13-dimethyl-3-oxo-2,3,6,7,8,9,10,11,12,13,14,15,16,17-tetradecahydro-1H-cyclopenta[a]phenanthren-17-yl)-10,10-dimethyl-4-oxa-3,6,9-triazaundec-2-en-5-one hydrochloride] here?
**A.** > 24 h

**Q.** And the “Plasma % rmn at 2 h” value ([2]; 2 h)?
**A.** 93%

**Q.** With C/C(=N\OC(=O)N(C)Cc1ccccn1)[C@H]1CC[C@H]2[C@@H]3CCC4=CC(=O)CC[C@]4(C)[C@H]3CC[C@]12C [compound 36, (8S,9S,10R,13S,14S,17S)-10,13-dimethyl-17-((E)-1-(((methyl(pyridin-2-ylmethyl)carbamoyl)oxy)imino)ethyl)-1,2,6,7,8,9,10,11,12,13,14,15,16,17-tetradecahydro-3H-cyclopenta[a]phenanthren-3-one] as the molecule, how does the half-life [2, 3] read?
**A.** 222 h
